Values joined by “and” are separate entries in the source; they are usually repeats but may differ in a detail not shown here. Equal entries are not always repeated. Where two headings read alike, the source gives them in different places.

Test [1] concerns leukotriene-induced paw edema. Briefly: Leukotriene-induced paw edema. The class given is in vivo, mouse. The settings on record: for percentage inhibition of leukotriene-induced paw edema: 20 mg/kg. The procedure:
(§1) It was done by injecting 10% DMSO, a Bradykinin inhibitor (HOE 140) at a dose of 1 mg/kg, a lipoxygenase inhibitor (montelukast) at a dose of 25 mg/kg, an antihistamine at a dose of 100 mg/kg, […], or a cyclooxygenase inhibitor (celecoxib) at a dose of 50 mg/kg.

Test [2] concerns the target 5-LOX enzyme. Briefly: 5-LOX activity (5-lipoxygenase inhibition, linoleic acid substrate, absorbance 234 nm). The settings on record: read-out: IC50 ± SEM 5-LOX.
The subject of test [3] is histamine-induced paw edema. Briefly: Histamine-induced paw edema. The test is classed as in vivo, mouse. The settings on record: 20 mg/kg, at 3 h.
The test system of test [4] is bradykinin-induced paw edema. Briefly: Bradykinin-induced paw edema. The test is classed as in vivo, mouse. The note with it: 20 mg/kg, first hour. How it is done:
as §1

The subject of test [5] is carrageenan-induced paw edema. Description: Carrageenan-induced paw edema. The class given is in vivo, albino mice. Background: Carrageenan injected into the paw causes an acute inflammation.
Test [6] has as its system prostaglandin E2-induced paw edema. Briefly: Prostaglandin E2-induced paw edema. The class given is in vivo, mouse. How it is done: It was done by injecting 10% DMSO, a Bradykinin inhibitor (HOE 140) at a dose of 1 mg/kg, a lipoxygenase inhibitor (montelukast) at a dose of 25 mg/kg, an antihistamine at a dose of 100 mg/kg, the tested compound at a dose of 100 mg/kg, or a cyclooxygenase inhibitor (celecoxib) at a dose of 50 mg/kg.

For the molecule `CC(C)(O)c1ccccc1CC[C@@H](SCC1(CC(=O)O)CC1)c1cccc(/C=C/c2ccc3ccc(Cl)cc3n2)c1` [montelukast, reference compound], the “percentage reduction of leukotriene-induced paw edema” value in test [1] (montelukast 25 mg/kg, fourth hour) is given as 72.79 ± 1.10%.
One may read the IC50 as the concentration that inhibits the measured activity by half. Take `Clc1csc(-c2nc(NCc3ccccc3)sc2Nc2ccccc2)c1` [Compound 5e]: the concentration for half-maximal inhibition (IC50) in test [2] (listed as C00005) was found to be 38.45 ± 0.2 µM. In addition, in test [3], the “antihistaminic effect (suppression of histamine-induced paw edema)” value amounted to 35%. Also, the “inhibition of bradykinin-induced paw swelling” value in test [4] amounted to 21.30%. Besides, the “percentage inhibition of leukotriene-induced paw edema” value in test [1] (fourth hour) is on record as 69.84%. Moreover, the “Percent inhibition of paw edema” value is given as 47.70 ± 1.68 % in test [5] (dose 5 mg/kg, 1 h); 51.47 ± 1.50 % in test [5] (dose 5 mg/kg, 2 h); 54.56 ± 1.34 % in test [5] (dose 5 mg/kg, 3 h); 53.35 ± 1.47 % in test [5] (dose 5 mg/kg, 4 h); 56.25 ± 1.65 % in test [5] (dose 5 mg/kg, 5 h); 52.36 ± 2.26 % in test [5] (dose 10 mg/kg, 1 h). The “Percent inhibition of paw edema” value was 54.58 ± 2.58 % in test [5] (dose 10 mg/kg, 2 h); 57.59 ± 1.59 % in test [5] (dose 10 mg/kg, 3 h); 56.78 ± 2.66 % in test [5] (dose 10 mg/kg, 4 h); 62.65 ± 2.79 % in test [5] (dose 10 mg/kg, 5 h); 55.29% and 55.29 ± 1.04 % in test [5] (dose 20 mg/kg, 1 h); 57.39 ± 1.69 % in test [5] (dose 20 mg/kg, 2 h). Also, the “Percent inhibition of paw edema” value is 60.76 ± 2.68 % in test [5] (dose 20 mg/kg, 3 h); 59.08 ± 1.98 % in test [5] (dose 20 mg/kg, 4 h); 64.59% and 64.59 ± 1.49 % in test [5] (dose 20 mg/kg, 5 h).
In the case of `CCNc1nc(-c2cc(Cl)cs2)c(N2CCNCC2)s1` [Compound 5b], the IC50 in test [2] stood at 98.26 ± 0.08 µM.
In the case of `CN1CCN(c2sc(NCc3ccccc3)nc2-c2cc(Cl)cs2)CC1` [Compound 5d], the IC50 in test [2] was 23.08 ± 0.18 µM. Further, the “antihistaminic effect (suppression of histamine-induced paw edema)” value in test [3] is 27.12%. The “inhibition of bradykinin-induced paw swelling” value in test [4] is listed as 9.20%. Further, the “inhibition of prostaglandin E2-induced paw edema” value in test [6] (20 mg/kg, fourth hour) came out at 76.56 ± 0.58. The “percentage inhibition of leukotriene-induced paw edema” value in test [1] (fifth hour (fifth of five values)) was found to be 59.90 ± 0.68%; in test [1] (first hour (first of five values)) it was 51.80 ± 0.58%; in test [1] (fourth hour), 64.56 ± 0.78%; in test [1] (second hour (second of five values)), 55.90 ± 0.66%; in test [1] (third hour (third of five values)), 59.46 ± 0.52%. Moreover, the “Percent inhibition of paw edema” value in test [5] (dose 5 mg/kg, 1 h) amounted to 45.47 ± 1.11%; in test [5] (dose 5 mg/kg, 2 h) it was 48.10 ± 1.42 %; in test [5] (dose 10 mg/kg, 1 h), 49.68 ± 1.44%; in test [5] (dose 20 mg/kg, 5 h) it was 61.64 ± 1.10%.
For the molecule `CCNc1nc(-c2cc(Cl)cs2)c(Nc2ccccc2)s1` [Compound 5f], in test [2], the concentration for half-maximal inhibition (IC50) was determined as 56.21 ± 0.15 µM.
With `Cc1ccc(-c2cc(C(F)(F)F)nn2-c2ccc(S(N)(=O)=O)cc2)cc1` [Celecoxib, reference compound], the “reduction of prostaglandin E2-induced paw edema” value in test [6] (celecoxib 50 mg/kg, 4th hour after inflammogen) was 88%.
Take `C#CCNc1nc(-c2cc(Cl)cs2)c(Nc2ccccc2)s1` [Compound 5g]: the half-inhibitory concentration (IC50) in test [2] amounted to 83.11 ± 0.16 µM.
As for `CC(=O)Oc1ccccc1C(=O)O` [Aspirin, reference compound], the “Percent inhibition of paw edema” value in test [5] (dose 50 mg/kg, 1 h) is given as 48.52 ± 1.12 %; in test [5] (dose 50 mg/kg, 2 h) it was 54.63 ± 1.47 %; in test [5] (dose 50 mg/kg, 3 h) it was 55.22 ± 1.38 %; in test [5] (dose 50 mg/kg, 4 h) it was 58.92 ± 1.95 %; in test [5] (dose 50 mg/kg, 5 h) it was 59.60 ± 1.52 %; in test [5] (dose 50 mg/kg, 5 h, listed as aspirin), 59.60%.
For the molecule `CCNc1nc(-c2cc(Cl)cs2)c(N2CCN(C)CC2)s1` [Compound 5c], in test [2], the IC50 came out at 72.32 ± 0.11 µM.
Consider `Nc1nc(-c2cc(Cl)cs2)c(N2CCNCC2)s1` [Compound 5a], for which the IC50 in test [2] was found to be 93.15 ± 0.07 µM.

The values are drawn from article PMC10937574, “Modification of 4-(4-chlorothiophen-2-yl)thiazol-2-amine derivatives for the treatment of analgesia and inflammation: synthesis and in vitro, in vivo, and in silico studies” (Frontiers in Pharmacology, 2024).
